For orientation: MIC means the lowest concentration found to suppress growth.

Holding throughout (assay type): cell-based
The subject of assay [1] is Streptococcus pyogenes N.Y.5. The assay is described as follows: Minimum inhibitory concentration (MIC), Streptococcus pyogenes N.Y.5.
Assay [2] deals with Staphylococcus aureus 0127. The assay is described as follows: Minimum inhibitory concentration (MIC), Staphylococcus aureus 0127. An excerpt: (§1) The minimum inhibitory concentration (MIC) of the compounds of the present invention is illustrated in Table 1.
(§2) *Macrolide registant strain A group (clinical isolates of erythromycin,
(§3) oleandomycin and 16membered macrolide antibiotics registant strains)

Assay [3] has as its system Staphylococcus aureus 0119. Nature of the assay: Minimum inhibitory concentration (MIC), Staphylococcus aureus 0119.
Text: as §1, §2, §3

In assay [4] the test system is Streptococcus pyogenes 1022. Nature of the assay: Minimum inhibitory concentration (MIC), Streptococcus pyogenes 1022.
Text: as §1, §2, §3

Assay [5] relates to Staphylococcus aureus ATCC6538p. Nature of the assay: Minimum inhibitory concentration (MIC), Staphylococcus aureus ATCC6538p.
Assay [6] concerns Staphylococcus aureus MS353. Nature of the assay: Minimum inhibitory concentration (MIC), Staphylococcus aureus MS353.
The test system of assay [7] is Staphylococcus aureus MS353AO. Nature of the assay: Minimum inhibitory concentration (MIC), Staphylococcus aureus MS353AO. To be noted: macrolide resistant strain A group.
Text: as §1, §2, §3

For assay [8], the system named is Staphylococcus aureus 0116. The assay is described as follows: Minimum inhibitory concentration (MIC), Staphylococcus aureus 0116.
Text: as §1, §2, §3

Where [9] appears, read: Staphylococcus aureus 0127, macrolide resistant strain A group, read-out: MIC.
The mark [10] stands for this setting: Streptococcus pyogenes 1022, macrolide resistant strain A group, read-out: MIC.
[11] abbreviates: Staphylococcus aureus 0116, macrolide resistant strain A group, read-out: MIC.

The structures appear in SMILES notation. Converted amounts (≈) assume the structure as drawn. Read-outs that look alike come from different tables or passages of the source.

As to `CCC1OC(=O)CC(O)C(C)C(OC2OC(C)CC(N(C)C)C2O)C(CC=O)CC(C)C(=O)/C=C/C(C)=C/C1COC1OC(C)CC(OC)C1OC` (centres unmarked) [R1 = H, R2 = H, 4', 4"-di-deoxy-desmycosin], the MIC is not above 0.05 µg/mL in assay [1]; 12.5 µg/mL (≈ 16.9 µM) in assay [2] (setting [9]); 12.5 µg/mL (≈ 16.9 µM) in assay [3] (Staphylococcus aureus, 0119); 25 µg/mL (≈ 33.8 µM) in assay [4] (setting [10]); 0.4 µg/mL (≈ 0.541 µM) in assay [5]; 0.2 µg/mL (≈ 0.27 µM) in assay [6]. Also, the figures for the MIC in assay [7] and in assay [8] (setting [11]) were 50 µg/mL (≈ 67.6 µM) and 3.1 µg/mL (≈ 4.19 µM), respectively.

Consider `CCC1OC(=O)CC(O)C(C)C(OC2OC(C)CC(N(C)C)C2O)C(CC=O)CC(C)C(=O)/C=C/C(C)=C/C1COC1OC(C)C(O)C(OC)C1OC` (centres unmarked) [R1 = H, R2 = OH, 4'-deoxy-desmycosin], for which the MIC in assay [1] is 0.1 µg/mL (≈ 0.132 µM); in assay [2] (setting [9]), 12.5 µg/mL (≈ 16.5 µM); in assay [3] (Staphylococcus aureus, 0119), 6.3 µg/mL (≈ 8.33 µM); in assay [4] (setting [10]) it was 3.1 µg/mL (≈ 4.1 µM); in assay [5] it was 0.8 µg/mL (≈ 1.06 µM); in assay [6], 0.8 µg/mL (≈ 1.06 µM). In addition, the MIC in assay [7] was 50 µg/mL (≈ 66.1 µM); in assay [8] (setting [11]) it was 3.1 µg/mL (≈ 4.1 µM).

As for `CCC1OC(=O)CC(O)C(C)C(OC2OC(C)C(O)C(N(C)C)C2O)C(CC=O)CC(C)C(=O)/C=C/C(C)=C/C1COC1OC(C)CC(OC)C1OC` (centres unmarked) [R1 = OH, R2 = H, 4"-deoxy-desmycosin], the MIC in assay [1] is not above 0.05 µg/mL; in assay [2] (Staphylococcus aureus, 0127) it was 6.3 µg/mL (≈ 8.33 µM); in assay [3] (Staphylococcus aureus 0119, macrolide resistant strain A group, read-out: MIC) it was 1.6 µg/mL (≈ 2.12 µM); in assay [4] (setting [10]), 3.1 µg/mL (≈ 4.1 µM); in assay [5], 0.4 µg/mL (≈ 0.529 µM); in assay [6], 0.4 µg/mL (≈ 0.529 µM). Also, the values for the MIC in assay [7] and in assay [8] (setting [11]) were 6.3 µg/mL (≈ 8.33 µM) and 1.6 µg/mL (≈ 2.12 µM), respectively.

As to `CC[C@H]1OC(=O)C[C@@H](O)[C@H](C)[C@@H](O[C@@H]2O[C@H](C)[C@@H](O[C@H]3C[C@@](C)(O)[C@@H](O)[C@H](C)O3)[C@H](N(C)C)[C@H]2O)[C@@H](CC=O)C[C@@H](C)C(=O)/C=C/C(C)=C/[C@@H]1CO[C@@H]1O[C@H](C)[C@@H](O)[C@@H](OC)[C@H]1OC` [Tylosin, tylosin, reference compound], the MIC in assay [1] was 0.2 µg/mL (≈ 0.218 µM); in assay [2] (Staphylococcus aureus, 0127) it was more than 100 µg/mL; in assay [3] (Staphylococcus aureus, 0119), more than 100 µg/mL; in assay [4] (Streptococcus pyogenes, 1022), more than 100 µg/mL; in assay [5], 0.8 µg/mL (≈ 0.873 µM); in assay [6], 1.6 µg/mL (≈ 1.75 µM). Further, the MIC is more than 100 µg/mL in assay [7] and more than 100 µg/mL in assay [8] (Staphylococcus aureus, 0116).

The values above are taken from US4421911A, “Deoxydesmycosin” (priority 1981, dated 1983).
